The text below walks through data of article PMC10657792, “Downstream Allosteric Modulation of NMDA Receptors by 3-Benzazepine Derivatives” (Molecular Neurobiology, 2023).

“And” between values parts separate entries of the source, which are not always exact repeats. Identical values can stand only once.

Holding throughout (format): cell-based
The target of one assay is GluN1a wt/ GluN2B wt (Rattus norvegicus, UniProt P35439+Q00960). Put plainly: TEVC recording of NMDAR currents in X. laevis oocytes, inhibition by compound. The method, then: (§1) The NMDAR was expressed in stage V and VI oocytes originated from X. laevis. Oocytes were provided by Ecocyte Bioscience (Dortmund, Germany), and equimolar amounts of wild-type and mutated GluN1 and GluN2B cRNA were injected (0.8 ng each). The oocytes were incubated in Barth’s solution, containing (mmol l^−1): 88 NaCl, 1 KCl, 0.4 CaCl2, 0.33 Ca(NO3)2, 0.6 MgSO4, 5 TRIS–HCl, 2.4 NaHCO3, supplemented with 80 mg l^−1 theophylline, 63 mg l^−1 benzylpenicillin, 40 mg l^−1 streptomycin, and 100 mg l^−1 gentamycin and maintained at 18 °C until usage. After injection, the oocytes were incubated for 5 days at 18 °C. Subsequently, the activity of the expressed NMDARs in the oocytes was recorded by two-electrode voltage clamp (TEVC).
Chain of GluN1a wt/ GluN2B wt (Q00960 27-1482, other chains not shown): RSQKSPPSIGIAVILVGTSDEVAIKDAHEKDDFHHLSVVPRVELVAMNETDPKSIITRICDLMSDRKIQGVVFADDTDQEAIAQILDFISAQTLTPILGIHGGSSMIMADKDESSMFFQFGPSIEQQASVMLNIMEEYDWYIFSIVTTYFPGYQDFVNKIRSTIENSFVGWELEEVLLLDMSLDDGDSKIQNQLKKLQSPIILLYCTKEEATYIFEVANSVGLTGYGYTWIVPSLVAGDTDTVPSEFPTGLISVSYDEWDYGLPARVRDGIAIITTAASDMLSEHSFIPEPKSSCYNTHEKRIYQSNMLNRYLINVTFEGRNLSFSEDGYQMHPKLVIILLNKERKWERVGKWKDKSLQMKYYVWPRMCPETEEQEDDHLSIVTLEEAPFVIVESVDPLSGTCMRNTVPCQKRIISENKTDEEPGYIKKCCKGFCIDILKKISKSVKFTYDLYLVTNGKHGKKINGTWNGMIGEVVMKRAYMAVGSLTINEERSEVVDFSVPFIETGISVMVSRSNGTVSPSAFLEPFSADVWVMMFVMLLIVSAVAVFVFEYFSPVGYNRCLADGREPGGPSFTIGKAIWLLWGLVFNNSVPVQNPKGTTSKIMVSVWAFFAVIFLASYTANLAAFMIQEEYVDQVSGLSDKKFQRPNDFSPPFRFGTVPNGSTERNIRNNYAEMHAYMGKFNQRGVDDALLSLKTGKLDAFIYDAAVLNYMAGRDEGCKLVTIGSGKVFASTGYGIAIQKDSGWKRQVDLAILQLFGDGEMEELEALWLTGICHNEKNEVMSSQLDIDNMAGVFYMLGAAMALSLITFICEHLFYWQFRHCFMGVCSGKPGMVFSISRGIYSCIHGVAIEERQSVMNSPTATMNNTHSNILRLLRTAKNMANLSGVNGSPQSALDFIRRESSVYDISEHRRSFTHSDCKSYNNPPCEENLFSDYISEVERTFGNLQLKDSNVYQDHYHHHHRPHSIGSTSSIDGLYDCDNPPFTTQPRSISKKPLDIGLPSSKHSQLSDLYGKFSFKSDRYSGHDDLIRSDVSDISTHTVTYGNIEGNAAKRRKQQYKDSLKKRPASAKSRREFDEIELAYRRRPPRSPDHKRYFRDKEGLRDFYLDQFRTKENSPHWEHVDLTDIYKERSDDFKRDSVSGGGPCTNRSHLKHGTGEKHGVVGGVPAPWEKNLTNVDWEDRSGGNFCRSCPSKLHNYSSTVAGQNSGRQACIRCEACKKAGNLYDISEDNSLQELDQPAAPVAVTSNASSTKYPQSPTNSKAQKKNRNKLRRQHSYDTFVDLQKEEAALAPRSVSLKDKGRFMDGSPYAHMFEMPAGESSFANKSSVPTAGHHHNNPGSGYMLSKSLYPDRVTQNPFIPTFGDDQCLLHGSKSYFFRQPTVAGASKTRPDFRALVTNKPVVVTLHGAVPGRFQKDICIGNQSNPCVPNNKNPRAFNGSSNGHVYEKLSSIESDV
(§2) The compounds were retrieved as 10 mM stock solutions in DMSO and were subsequently diluted with agonist solution and adjusted to 0.1% DMSO concentration. Inhibition of each compound was measured via TEVC in X. laevis oocytes at room temperature using a Turbo Tec 10CX amplifier (NPI electronic, Tamm, Germany), NI USB 6221 DA/AD Interface (National Instruments, Austin, USA), and GePulse Software (Dr. Michael Pusch, Genova, Italy). Ba^2+-Ringer, consisting of 10 mM HEPES, 90 mM NaCl, 1 mM KCl, and 1.5 mM BaCl2, adjusted to pH 7.4, was used for TEVC measurements. Agonist solution containing 10 µM glycine and 10 µM (S)-glutamate was prepared in Ba^2+-Ringer, and the measurements were performed at a holding potential of − 70 mV, using electrodes with a glass capillary filled with 3 M KCl and a resistance between 0.5 and 1.5 MΩ. The compounds were tested by applying ascending concentrations, ranging from 1 to 30,000 nM, in at least six oocytes. Example traces for all recorded conditions can be found in Supplementary Figs. S2–S9.
(§3) TEVC data were analyzed using Ana (Dr. Michael Pusch, Genova, Italy), and statistics were performed using OriginPro 2020 (OriginLab Corporation, Northampton, USA). The inhibitory effect of each compound is calculated using the following equation: inhibition=1-Ic-Ih/Ia-Ih where Ih describes the current in the absence of agonists; Ia represents the steady-state current in the presence of the agonists; and Ic is defined as the steady-state after binding of agonist and compound. All dose response curves are fitted to the following logistic equation: y=A1-A2/1+x/x0^p+A2 where A1 describes the minimal inhibition of a compound and was set to 0; A2 represents the maximal inhibition of a compound; p is the slope of the curve; x0 is defined as the concentration at half-maximal inhibition; and x is the tested concentration. Data were statistically analyzed by one-way ANOVA and Tukey post-hoc mean comparison test in OriginPro 2020 (OriginLab Corporation, Northampton, USA). p values are indicated by * for p < 0.05, ** for p < 0.01, and *** for p < 0.001.

The target in assay [1] is GluN1b wt/ GluN2B wt (Rattus norvegicus, UniProt P35439+Q00960). The description is as above. On the procedure: as §1, §2, §3
Chain of GluN1b wt/ GluN2B wt (Rattus norvegicus, UniProt P35439+Q00960) (Q00960 27-1482, other chains not shown): as above
The test system of assay [2] is GluN1b wt/ GluN2B wt. Described as above. The conditions noted are these: X. laevis oocytes; higher for GluN1-1b. On the procedure: as §1, §2, §3
The target in another assay is GluN1a wt/ GluN2B F114A (Rattus norvegicus, UniProt P35439+Q00960, F114A). Kind of assay: TEVC recording in X. laevis oocytes, GluN2B mutant screening. As to conditions: fitted curve.
Chain of GluN1a wt/ GluN2B F114A (Q00960 27-1482 F114A, other chains not shown): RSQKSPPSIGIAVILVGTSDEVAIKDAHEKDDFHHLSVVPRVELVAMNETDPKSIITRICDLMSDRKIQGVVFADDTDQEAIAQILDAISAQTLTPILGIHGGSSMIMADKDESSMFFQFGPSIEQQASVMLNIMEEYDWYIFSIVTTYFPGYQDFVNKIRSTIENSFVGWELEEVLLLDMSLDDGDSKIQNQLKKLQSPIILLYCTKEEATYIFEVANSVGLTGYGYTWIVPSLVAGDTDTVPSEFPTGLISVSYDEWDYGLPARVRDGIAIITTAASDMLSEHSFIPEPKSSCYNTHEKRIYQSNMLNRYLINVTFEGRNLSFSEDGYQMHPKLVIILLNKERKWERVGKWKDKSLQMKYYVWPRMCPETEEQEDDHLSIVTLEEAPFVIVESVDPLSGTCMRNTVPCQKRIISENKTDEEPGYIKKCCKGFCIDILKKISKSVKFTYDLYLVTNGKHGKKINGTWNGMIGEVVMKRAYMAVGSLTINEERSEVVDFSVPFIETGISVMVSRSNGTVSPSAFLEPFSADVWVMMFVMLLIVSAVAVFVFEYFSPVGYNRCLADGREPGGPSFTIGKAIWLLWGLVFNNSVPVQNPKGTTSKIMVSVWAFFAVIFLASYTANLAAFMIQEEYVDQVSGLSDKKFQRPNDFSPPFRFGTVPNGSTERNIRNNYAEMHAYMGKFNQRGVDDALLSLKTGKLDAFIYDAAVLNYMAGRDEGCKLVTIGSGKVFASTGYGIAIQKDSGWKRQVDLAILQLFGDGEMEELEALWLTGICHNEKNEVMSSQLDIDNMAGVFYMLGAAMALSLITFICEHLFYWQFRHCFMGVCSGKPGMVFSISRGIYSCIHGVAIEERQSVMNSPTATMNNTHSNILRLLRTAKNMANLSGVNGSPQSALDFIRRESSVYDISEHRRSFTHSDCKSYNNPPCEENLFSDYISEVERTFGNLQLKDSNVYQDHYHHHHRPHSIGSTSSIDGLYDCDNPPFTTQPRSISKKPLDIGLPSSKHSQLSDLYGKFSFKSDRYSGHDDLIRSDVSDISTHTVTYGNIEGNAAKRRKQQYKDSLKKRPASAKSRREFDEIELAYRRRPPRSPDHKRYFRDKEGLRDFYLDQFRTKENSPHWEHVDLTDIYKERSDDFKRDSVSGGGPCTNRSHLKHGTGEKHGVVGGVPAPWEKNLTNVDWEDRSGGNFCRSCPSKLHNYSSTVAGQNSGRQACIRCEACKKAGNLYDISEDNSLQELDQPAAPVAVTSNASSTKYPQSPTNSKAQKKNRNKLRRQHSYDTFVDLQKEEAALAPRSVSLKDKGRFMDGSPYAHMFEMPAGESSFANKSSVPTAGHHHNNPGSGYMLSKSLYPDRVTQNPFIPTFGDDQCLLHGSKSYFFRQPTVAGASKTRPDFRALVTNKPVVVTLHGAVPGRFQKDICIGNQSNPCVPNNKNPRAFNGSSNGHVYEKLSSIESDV
Another assay addresses T1, GluN1-1a/GluN2B (Rattus norvegicus, UniProt P35439+Q00960).
T1 construct: eGFP; DsRed2 (C); expressed in transfected cells; host or cells: CHO cells (constructs a gift from Prof. Hollmann, Bochum)
Put plainly: Single-channel patch clamp recordings (cell-attached) in CHO cells: open time, open channel probability. The conditions noted are these: 1 µM compound, without exon 5. On the procedure: (§4) Chinese hamster ovary (CHO) cells were co-transfected with GluN1-1a eGFP and GluN2B pDsRed2-N1 or GluN1-1b eGFP and GluN2B pDsRed2-N1. The constructs were a generous gift from Prof. Hollmann (Bochum, Germany). GluN1-1b eGFP was obtained by subcloning of GluN1-1b in eGFP using BssHII and BtrI. Single-channel patch clamp recordings were performed at room temperature using an Axopatch 200B amplifier (Molecular Devices, USA). The patch clamp experiments on cultured CHO cells were done using Clampex 10.7 software (Molecular Devices, USA). Single-channel recordings were performed in the cell-attached configuration. Borosilicate glass pipettes with a resistance of 2–3 MΩ were backfilled with internal solution, consisting of 125 mM NaCl, 3 mM KCl, 1.25 mM NaH2PO4, 0.85 mM CaCl2, and 20 mM HEPES, 100 nM (S)-glutamate, and 20 µM glycine, adjusted to pH 7.4. During the recordings, the cells were continuously flushed with external solution, consisting of 141 mM potassium gluconate, 2.5 mM NaCl, 11 mM EGTA, and 10 mM HEPES, adjusted to pH 7.4 by KOH. The antagonist solution was prepared by adding 1 µM (R)-OF-NB1. All solutions were adjusted to a DMSO concentration of 0.1%. NMDA currents were measured by clamping GluN1-1a/GluN2B or GluN1-1b/GluN2B wild-type expressing CHO cells at − 70 mV. […] Data analysis was performed and evaluated using Clampfit 10.7 (Molecular Devices, USA).
On the technique in general: Patch clamp records ionic current or voltage across a cell membrane.

The target of the next assay is T2, GluN1-1b/GluN2B (Rattus norvegicus, UniProt P35439+Q00960).
T2 construct: eGFP; DsRed2 (C); expressed in transfected cells; host or cells: CHO cells
The assay is described as above. The conditions noted are these: 1 µM compound, exon 5 present. The method, then:
as §4

The mark [3] stands for this setting: oocytes, 10 µM glycine + 10 µM (S)-glutamate, -70 mV, fitted curve.

The term inhibition denotes the relative decrease from the control value, in per cent. A higher inhibition goes with a strong effect. Usually Hill coefficient stands for a measure of the steepness of the concentration-response curve. By IC50 is commonly meant the midpoint of a concentration-inhibition curve. On to `Oc1ccc2c(c1)CCN(CCCCc1ccccc1F)C[C@@H]2O` [(R)-OF-NB1], for which the inhibition at 10 µM is 88.1% against GluN1a wt/ GluN2B wt (GluN1-1a/ GluN2B, compound concentration 10 μM, single oocytes) and 82.7% against GluN1b wt/ GluN2B wt [1] (GluN1-1b, compound 10000 nM, single oocyte). Moreover, the inhibition at 30 µM came to 91.8% against GluN1a wt/ GluN2B wt (GluN1-1a/ GluN2B, compound concentration 30 μM, single oocytes); 84.9% against GluN1b wt/ GluN2B wt [1] (GluN1-1b, compound 30000 nM, single oocyte); 86.1% on GluN1b wt/ GluN2B wt [1] (GluN1-1b/ GluN2B, compound concentration 30 μM, single oocytes). Also, on GluN1a wt/ GluN2B wt (TEVC example traces), the “antagonist concentration at which oocytes were already inhibited” value is 0.001 µM. Further, the Hill coefficient at GluN1a wt/ GluN2B wt (fitted curve) was 0.9; on GluN1b wt/ GluN2B wt [1] (fitted curve), 6.2; at GluN1a wt/ GluN2B F114A, 0.8. In addition, the figures for the IC50 at GluN1a wt/ GluN2B wt (setting [3]), at GluN1b wt/ GluN2B wt [1] (setting [3]) and at GluN1a wt/ GluN2B F114A (agonists 10 µM glycine + 10 µM (S)-glutamate) were 97 nM, 675 nM and 6580 nM, respectively. For the same compound, the “inhibition (%)” value at GluN1b wt/ GluN2B wt [1] (GluN1-1b, compound 10 nM, single oocyte, 0.01 µM) was -3.681% and 0.325% and 2.192% and 0.884% and -0.428% and 3.985% and 0.078% and 0.089%; against GluN1b wt/ GluN2B wt [1] (GluN1-1b/ GluN2B, compound concentration 0.001 μM, single oocytes, 0.001 µM) it was 0.0934% and -0.03337% and 1.1426% and -0.02965% and -0.02382% and 0.3791% and 0.2758%; at GluN1b wt/ GluN2B wt [1] (GluN1-1b/ GluN2B, compound concentration 0.01 μM, single oocytes, 0.01 µM) it was -0.2599% and -0.1168% and -0.1502% and 0.03902% and 1.645% and -0.1483% and 0.439% and 0.2911%. Besides, on GluN1b wt/ GluN2B wt [1] (GluN1-1b, compound 1000 nM, single oocyte), the inhibition at 1 µM is 72.1%. The “antagonist concentration at which oocytes were inhibited” value on GluN1b wt/ GluN2B wt [1] (TEVC example traces) was ~ 1 µM. Further, the “A2 (level of maximal inhibition)” value at GluN1b wt/ GluN2B wt [1] (fitted curve) is on record as 84.8%. Moreover, in the assay with GluN1b wt/ GluN2B wt [2], the “IC50 of splice variant containing exon 5 (GluN1-1b) relative to IC50 of GluN1-1a” value is listed as “sevenfold”. For the same compound, the “effect on open time of NMDAR” value on GluN1-1a/GluN2B and at GluN1-1b/GluN2B was “did not result in a significant reduction” each time.
